Reference: US10005768B2, “Carboxamide derivatives and use thereof” (Purdue Pharma L.P., priority 2013, dated 2018)

molecular target: T1, human Nav1.7 (Homo sapiens (Human), UniProt Q15858); assay: FLIPR membrane potential dye assay (alternative fluorescence assay); format: cell-based; conditions: recombinant Nav1.7/HEK293 cells
Protocol: In vitro assays were performed in a recombinant cell line expressing cDNA encoding the alpha subunit (Nav1.7, SCN9a, PN1, NE) of human Nav1.7 (Accession No. NM_002977). The cell line was provided by investigators at Yale University (Cummins et al, J. Neurosci. 18(23): 9607-9619 (1998)). For dominant selection of the Nav1.7-expressing clones, the expression plasmid co-expressed the neomycin resistance gene. The cell line was constructed in the human embryonic kidney cell line, HEK293, under the influence of the CMV […] promoter, and stable clones were selected using limiting dilution cloning and antibiotic selection using the neomycin analogue, G418. Recombinant beta and gamma subunits were not introduced into this cell line. Additional cell lines expressing recombinant Nav1.7 cloned from other species can also be used, alone or in combination with various beta subunits, gamma subunits or chaperones.
A fluorescence indicator that can be used in alternative fluorescence assays is the blue version membrane potential dye (MDS, Molecular Devices, Sunnyvale, Calif.), a dye that detects changes in molecules following a change in membrane potential. An increase in fluorescence is expected if agonist stimulation provokes a change in membrane potential. Cells expressing Nav1.7 or other sodium channels are incubated with the membrane potential dye 30-60 minutes before the fluorescence assay. In the case of the KCl pre-stimulation version of the assay, the dye and all other components are washed out immediately before the assay, and the dye is then replaced. In the version lacking KCl pre-stimulation, the dye remains on the cells and is not washed out or replaced. The dye is stored in the dark as a lyophilized powder, and then an aliquot dissolved in assay buffer to form a 20×-concentrated stock solution that can be used for several weeks.
In the fluorescence assays, two agonists were used in combination, namely 1) veratridine; and 2) the venom from the yellow scorpion, Leiurus quinquestriatus hebraeus. Veratridine is an alkaloid small molecule that facilitates the capture of channel openings by inhibiting inactivation, and the scorpion venom is a natural preparation that includes peptide toxins selective for different subsets of voltage-gated sodium channels. These scorpion toxins inhibit the fast inactivation of their cognate target channels. Stock solutions of the agonists were prepared to 40 mM in DMSO (veratridine) and 1 mg/mL in dH2O (scorpion venom), and then diluted to make a 4× or 2× stock (depending on the particular assay) in assay buffer, the final concentration being 100 μM (veratridine) and 10 μg/mL (scorpion venom). Both of the agonists were purchased from Sigma Aldrich, St. Louis, Mo.
Test compounds were dissolved in DMSO to yield 10 mM stock solutions. The stock solutions were further diluted using DMSO in 1:3 serial dilution steps with 10 points (10,000 μM, […], 370 μM, 123 μM, 41 μM, 14 μM, 4.6 μM, 1.5 μM and 0.5 μM). The stock solutions were further diluted in assay buffer (1:125) as 4× stock serial dilutions with a DMSO concentration of 0.8% (final [DMSO], in the assay, from the compounds component=0.2%), so that the compounds' final concentrations in the assay were 20 μM, 6.7 μM, 2.2 μM, 0.74 μM, 0.25 μM and 0.08 μM, 0.03 μM, 0.01 μM, 0.003 μM and 0.001 μM. If a particular test article appeared to be especially potent, then the concentration curve was adjusted, e.g., to 10-fold lower concentrations, in order to perform the dose-response in a more relevant concentration range. Compound dilutions were added during the dye-loading and pre-stimulation step, and then again during the fluorescence assay, early in the kinetic read.
The data were analyzed according to methods known to those skilled in the art or using the GraphPad® Prism Program, version 4.0 or higher (available from GraphPad Software, San Diego, Calif.) to determine the IC50 value for the test article. […]

T1 sequence (Q15858 other isoform, or with tags, fused parts or gaps): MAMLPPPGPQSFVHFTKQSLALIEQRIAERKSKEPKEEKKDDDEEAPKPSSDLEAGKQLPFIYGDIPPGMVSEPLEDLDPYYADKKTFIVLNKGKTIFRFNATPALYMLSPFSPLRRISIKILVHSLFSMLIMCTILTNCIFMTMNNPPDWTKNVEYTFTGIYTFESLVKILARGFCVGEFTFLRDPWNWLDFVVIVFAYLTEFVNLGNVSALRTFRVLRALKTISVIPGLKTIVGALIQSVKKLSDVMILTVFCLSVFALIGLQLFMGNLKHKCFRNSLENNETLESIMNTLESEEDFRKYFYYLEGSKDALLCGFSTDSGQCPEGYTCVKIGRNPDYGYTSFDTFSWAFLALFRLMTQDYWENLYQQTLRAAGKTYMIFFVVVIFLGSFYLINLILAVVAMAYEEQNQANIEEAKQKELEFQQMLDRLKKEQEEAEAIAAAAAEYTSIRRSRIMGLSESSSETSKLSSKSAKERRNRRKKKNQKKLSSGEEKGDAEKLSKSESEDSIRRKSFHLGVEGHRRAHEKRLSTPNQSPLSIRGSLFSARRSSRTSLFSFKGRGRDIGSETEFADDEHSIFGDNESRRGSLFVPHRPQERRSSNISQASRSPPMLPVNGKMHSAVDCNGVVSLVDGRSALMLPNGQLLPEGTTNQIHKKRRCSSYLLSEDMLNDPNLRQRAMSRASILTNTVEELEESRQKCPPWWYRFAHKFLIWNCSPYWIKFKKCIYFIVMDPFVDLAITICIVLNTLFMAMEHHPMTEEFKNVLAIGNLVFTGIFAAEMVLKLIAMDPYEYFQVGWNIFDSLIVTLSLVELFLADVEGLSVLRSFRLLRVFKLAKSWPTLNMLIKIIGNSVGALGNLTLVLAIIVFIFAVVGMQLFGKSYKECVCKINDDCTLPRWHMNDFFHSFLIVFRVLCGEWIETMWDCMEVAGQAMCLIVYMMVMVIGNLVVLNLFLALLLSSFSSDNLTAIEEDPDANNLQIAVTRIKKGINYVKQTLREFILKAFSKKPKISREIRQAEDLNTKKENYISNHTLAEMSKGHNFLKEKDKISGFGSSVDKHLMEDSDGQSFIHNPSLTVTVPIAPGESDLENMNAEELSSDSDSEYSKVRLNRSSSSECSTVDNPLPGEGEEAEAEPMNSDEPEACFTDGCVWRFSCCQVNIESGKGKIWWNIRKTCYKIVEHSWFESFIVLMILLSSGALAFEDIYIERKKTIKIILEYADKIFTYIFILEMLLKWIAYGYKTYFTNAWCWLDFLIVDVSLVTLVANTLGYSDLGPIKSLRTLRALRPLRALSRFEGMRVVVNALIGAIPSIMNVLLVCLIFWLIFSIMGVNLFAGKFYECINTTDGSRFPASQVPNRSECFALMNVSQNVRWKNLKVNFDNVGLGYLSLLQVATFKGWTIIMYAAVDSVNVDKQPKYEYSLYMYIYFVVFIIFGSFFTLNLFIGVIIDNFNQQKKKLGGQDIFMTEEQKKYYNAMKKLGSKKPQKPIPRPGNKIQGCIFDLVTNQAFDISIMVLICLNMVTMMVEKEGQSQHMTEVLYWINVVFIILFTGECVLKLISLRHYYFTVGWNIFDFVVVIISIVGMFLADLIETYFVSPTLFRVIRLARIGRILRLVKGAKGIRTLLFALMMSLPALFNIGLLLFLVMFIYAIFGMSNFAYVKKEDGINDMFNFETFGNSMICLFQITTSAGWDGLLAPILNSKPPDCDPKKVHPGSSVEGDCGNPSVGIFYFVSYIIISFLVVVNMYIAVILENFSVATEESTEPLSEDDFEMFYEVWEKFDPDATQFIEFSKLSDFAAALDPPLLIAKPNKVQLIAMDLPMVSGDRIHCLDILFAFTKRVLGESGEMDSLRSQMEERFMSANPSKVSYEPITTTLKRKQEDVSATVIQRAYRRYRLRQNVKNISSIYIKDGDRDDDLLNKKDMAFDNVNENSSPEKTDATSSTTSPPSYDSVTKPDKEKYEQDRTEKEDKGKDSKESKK

| IC50 [µM] | SMILES |
| --- | --- |
| 0.311 ± 0.006 | Cn1nccc1-c1cc(C(F)(F)F)ccc1Oc1ccc(-c2nccc(C(N)=O)n2)cc1 [compound 125, 2-(4-(2-(1-methyl-1H-pyrazol-5-yl)-4-(trifluoromethyl)phenoxy)phenyl) pyrimidine-4-carboxamide] |
| > 20 | NC(=O)c1cc([C@H](O)CO)cc(-c2ccc(Oc3ccc(Cl)cc3-c3ccnn3C3CNC3)cc2)n1 [compound 136, (S)-6-(4-(2-(1-(azetidin-3-yl)-1H-pyrazol-5-yl)-4-chlorophenoxy)phenyl)-4-(1,2-dihydroxyethyl)picolinamide] |
| > 20 | O=C(NC[C@@H](O)CO)c1cc(C(F)(F)F)ccc1Oc1ccc(-c2cccc([C@H](O)CO)n2)cc1 [compound 167, 2-(4-(6-((S)-1,2-dihydroxyethyl)pyridin-2-yl)phenoxy)-N-((R)-2,3-dihydroxypropyl)-5-(trifluoromethyl)benzamide] |
| 0.486 ± 0.032 | NC(=O)c1cc(CCn2ccnc2)nc(-c2ccc(Oc3ccc(C(F)(F)F)cc3CN3CCOCC3)cc2)n1 [compound 127, 6-(2-(1H-imidazol-1-yl)ethyl)-2-(4-(2-(morpholinomethyl)-4-(trifluoromethyl)phenoxy)phenyl) pyrimidine-4-carboxamide] |
| 0.149 ± 0.056 | Cn1nccc1-c1cc(C(F)(F)F)ccc1Oc1ccc(-c2cccc(C(N)=O)n2)cc1 [compound 123, 6-(4-(2-(1-methyl-1H-pyrazol-5-yl)-4-(trifluoromethyl)phenoxy)phenyl) picolinamide] |
| > 20 | O=C(NCc1nnn[nH]1)c1cc(C(F)(F)F)ccc1Oc1ccc(-c2cccc([C@H](O)CO)n2)cc1 [compound 176, (S)-N-((1H-tetrazol-5-yl)methyl)-2-(4-(6-(1,2-dihydroxyethyl)-pyridin-2-yl)phenoxy)-5-(trifluoromethyl)benzamide] |

Second part, the molecule before the results:

| SMILES | IC50 [µM] |
| --- | --- |
| CCN(CC)Cc1cc(C(F)(F)F)ccc1Oc1ccc(-c2nc(C(N)=O)cc([C@@H](O)CO)n2)cc1 [compound 133, (R)-2-(4-(2-((diethylamino)methyl)-4-(trifluoromethyl)phenoxy)phenyl)-6-(1,2-dihydroxyethyl)pyrimidine-4-carboxamide] | 0.699 ± 0.045 |
| C[C@H](Nc1cc(C(N)=O)nc(-c2ccc(Oc3ccccc3-c3ccnn3C)cc2)n1)C(N)=O [compound 140, (S)-6-((1-amino-1-oxopropan-2-yl)amino)-2-(4-(2-(1-methyl-1H-pyrazol-5-yl)phenoxy)phenyl)-pyrimidine-4-carboxamide] | 4.23 ± 0.479 |
| CCN(CCN(C)C)C(=O)c1cc(C(F)(F)F)ccc1Oc1ccc(-c2cccc([C@H](O)CO)n2)cc1 [compound 172, (S)-2-(4-(6-(1,2-dihydroxyethyl)pyridin-2-yl)phenoxy)-N-(2-(dimethyl-amino)ethyl)-N-ethyl-5-(trifluoromethyl)benzamide] | 7.97 ± 1.19 |
| CCN(C)C(=O)c1cc(C(F)(F)F)ccc1Oc1ccc(-c2cccc([C@H](O)CO)n2)cc1 [compound 169, (S)-2-(4-(6-(1,2-dihydroxy-ethyl)pyridin-2-yl)phenoxy)-N-ethyl-N-methyl-5-(trifluoro-methyl)benzamide] | 1.55 ± 0.286 |

molecular target: T1, human Nav1.7; assay: FLIPR sodium dye assay (CoroNa Green AM Na+ dye, primary fluorescence assay); format: cell-based; conditions: recombinant Nav1.7/HEK293 cells
Procedure, shortened: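 HEK293 cells stably expressing human Nav1.7 α subunit (no β/γ subunits), loaded with 5 μM CoroNa Green Na+ dye in HEPES-buffered Hanks-type saline, pH 7.3. Na+ influx stimulated by 100 μM veratridine plus 10 μg/mL Leiurus scorpion venom; compounds tested at 20 μM down to 0.001 μM (10 points, 0.2% DMSO).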

| IC50 [µM] | SMILES |
| --- | --- |
| 3.05 ± 0.942 | NC(=O)c1cccc(-c2ccc(Oc3ccc(C(F)(F)F)cc3CNCCc3ccc(S(N)(=O)=O)cc3)cc2)n1 [compound 32, 6-(4-(2-(((4-sulfamoylphenethyl)-amino)methyl)-4-(trifluoro-methyl)phenoxy)phenyl)picolin-amide] |
| 0.249 ± 0.016 | CCN(CC)S(=O)(=O)c1cc(C(F)(F)F)ccc1Oc1ccc(-c2cccc([C@H](O)CO)n2)cc1 [compound 113, (S)-2-(4-(6-(1,2-dihydroxyethyl)pyridin-2-yl)phenoxy)-N,N-diethyl-5-(trifluoromethyl)benzenesulfonamide] |
| 2.58 ± 0.692 | NC(=O)c1cccc(-c2ccc(Oc3ccc(C(F)(F)F)cc3CN[C@H]3CCNC3=O)cc2)n1 [compound 46, (S)-6-(4-(2-(((2-oxopyrrolidin-3-yl)amino)methyl)-4-(trifluoro-methyl)phenoxy)phenyl)picolin-amide] |
| 0.117 ± 0.036 | NC(=O)c1cccc(-c2ccc(Oc3ccc(C(F)(F)F)cc3-c3cccnc3)cc2)n1 [compound 29, 6-(4-(2-(pyridin-3-yl)-4-(trifluoromethyl)phenoxy)phenyl) picolinamide] |
| 0.104 ± 0.02 | N#Cc1ccc(Oc2ccc(-c3cccc(C(N)=O)n3)cc2)c(-c2cccnc2)c1 [compound 16, 6-(4-(4-cyano-2-(pyridin-3-yl)phenoxy)phenyl)picolinamide] |
| 10 to 20 | CN(C)C(C(N)=O)c1cc(C(F)(F)F)ccc1Oc1ccc(-c2cccc(C(N)=O)n2)cc1 (centres unmarked) [compound 84, 6-(4-(2-(2-amino-1-(dimethylamino)-2-oxoethyl)-4-(trifluoromethyl)phenoxy)phenyl) picolinamide] |
| 0.862 ± 0.012 | NCc1cc(C(F)(F)F)ccc1Oc1ccc(-c2cccc(C(N)=O)n2)cc1 [compound 65, 6-(4-(2-(aminomethyl)-4-(trifluoromethyl)phenoxy)phenyl) picolinamide] |
| 7.95 ± 0.402 | CN1CCN(C(=O)c2cc(C(F)(F)F)ccc2Oc2ccc(-c3cccc(C(N)=O)n3)cc2)CC1 [compound 162, 6-(4-(2-(4-methylpiperazine-1-carbonyl)-4-(trifluoromethyl)phenoxy)phenyl)picolinamide] |
| 1.1 ± 0.107 | CN(CCO)Cc1cc(C(F)(F)F)ccc1Oc1ccc(-c2cccc(C(N)=O)n2)cc1 [compound 52, 6-(4-(2-(((2-hydroxyethyl)-(methyl)amino)methyl)-4-(trifluoromethyl)phenoxy)phenyl) picolinamide] |

More lines, now with the values behind:

| SMILES | IC50 [µM] |
| --- | --- |
| NC(=O)c1cccc(-c2ccc(Oc3ccc(C(F)(F)F)c(CN4CCC4)c3)cc2)n1 [compound 53, 6-(4-(3-(azetidin-1-ylmethyl)-4-(trifluoromethyl)phenoxy)phenyl) picolinamide] | 0.384 ± 0.106 |
| NC(=O)c1cccc(-c2ccc(Oc3ccc(C(F)(F)F)cc3CN3CC[C@H](O)C3)cc2)n1 [compound 36, (S)-6-(4-(2-((3-hydroxypyrrolidin-1-yl)methyl)-4-(trifluoromethyl)-phenoxy)phenyl)picolinamide] | 0.432 ± 0.131 |
| NC(=O)c1cccc(-c2ccc(Oc3ccc(F)cc3)c(-c3ccc(Cl)cc3)c2)n1 [compound 100, 6-(4′-chloro-6-(4-fluorophenoxy)-[1,1′-biphenyl]-3-yl)picolinamide] | 0.276 ± 0.063 |
| NC(=O)c1cccc(-c2ccc(Oc3ccc(C(F)(F)F)cc3C(C(N)=O)N3CCCCC3)cc2)n1 (centres unmarked) [compound 82, 6-(4-(2-(2-amino-2-oxo-1-(piperidin-1-yl)ethyl)-4-(trifluoromethyl)phenoxy)phenyl) picolinamide] | 2.72 ± 0.264 |
| COC(=O)c1cccc(-c2ccc(Oc3ccc(C(F)(F)F)cc3C(O)C#N)cc2)n1 (centres unmarked) [compound 144, methyl 6-(4-(2-(cyano(hydroxy)methyl)-4-(trifluoromethyl)phenoxy)phenyl) picolinate] | 3.79 ± 0.377 |
| COc1ncccc1-c1cc(C#N)ccc1Oc1ccc(-c2cccc(C(N)=O)n2)cc1 [compound 24, 6-(4-(4-cyano-2-(2-methoxypyridin-3-yl)phenoxy)phenyl)picolinamide] | 0.152 ± 0.031 |
| CN(C)CCNCc1cc(C(F)(F)F)ccc1Oc1ccc(-c2cccc(C(N)=O)n2)cc1 [compound 31, 6-(4-(2-(((2-(dimethylamino)ethyl)amino)methyl)-4-(trifluoromethyl)phenoxy)phenyl) picolinamide] | 2.14 ± 0.432 |
